Test results: ChEMBL document CHEMBL5338801, “Carbohydrate Strengthens the Immunotherapeutic Effect of Small-Molecule PD-L1 Inhibitors” (J Med Chem, 2023)
The source made the active and inactive calls. No cut-off for these calls is given here.

Key:
Jurkat = test: Cytotoxicity against human Jurkat cells assessed as cell growth inhibition incubated for 48 hrs by MTT assay; format: functional, cell-based
[1] = target: Programmed cell death protein 1/Programmed cell death 1 ligand 1 (Homo sapiens, UniProt Q9NZQ7); test: Inhibition of PD-1/PD-L1 (unknown origin) interaction incubated for 15 mins by HTRF assay; format: protein-complex assay
[2] = Partition coefficient, logD of compound in 1-octanol and phosphate buffer at pH 7.4 incubated for 1 hr under shaking condition by HPLC analysis; format: physicochemical; settings: for logD at 1 h: 1-octanol/phosphate buffer, pH 7.4
[3] = target: Programmed cell death protein 1/Programmed cell death 1 ligand 1 (Homo sapiens) (UniProt Q15116+Q9NZQ7); settings: dose 300.0 nM, time 15.0 min
[4] = target: Programmed cell death 1 ligand 1 (Homo sapiens) (UniProt Q9NZQ7); test: Induction of human PD-L1 degradation expressed in MC38 cells at 10 uM cocultured for 72 hrs by Western blotting analysis; format: cell-based
[5] = target: Programmed cell death 1 ligand 1 (Homo sapiens) (UniProt Q9NZQ7); test: Inhibition of human PD-L1 overexpressed in RKO cells assessed as reduction in membrane activity cocultured for 48 hrs by flow cytometry analysis; format: cell-based
RKO [6] = test: Cytotoxicity against human RKO cells over expressing human PD-L1 at 50 uM; format: toxicity, cell-based
[7] = Cytotoxicity against human Jurkat T cells assessed as cell viability at 10 uM incubated for 48 hrs by MTT assay; format: toxicity, cell-based; settings: read-out: Activity
MC-38 = test: Cytotoxicity against mouse MC38 cells assessed as cell death at 10 uM for 48 hrs by MTT assay; format: toxicity, cell-based; settings: mc-38, 48 h
[8] = Toxicity in BALB/c mouse implanted with mouse CT26 cells assessed as weight loss at 25 mg/kg, ip qd administered for 10 days measured every 2 days for 12 days relative to control; format: organism-based; settings: in vivo, 288 h, time 12 day
RKO [9] = test: Cytotoxicity against human RKO cells over expressing human PD-L1 at above 10 uM; format: toxicity, cell-based
[10] = target: Programmed cell death 1 ligand 1 (Homo sapiens) (UniProt Q9NZQ7); test: Induction of human PD-L1 degradation expressed in MC38 cells at 0.1 to 10 uM cocultured for 72 hrs by Western blotting analysis; format: cell-based; settings: dose 0.1-10 µM

Chain of Programmed cell death 1 ligand 1 (Homo sapiens) (Q9NZQ7 whole entry): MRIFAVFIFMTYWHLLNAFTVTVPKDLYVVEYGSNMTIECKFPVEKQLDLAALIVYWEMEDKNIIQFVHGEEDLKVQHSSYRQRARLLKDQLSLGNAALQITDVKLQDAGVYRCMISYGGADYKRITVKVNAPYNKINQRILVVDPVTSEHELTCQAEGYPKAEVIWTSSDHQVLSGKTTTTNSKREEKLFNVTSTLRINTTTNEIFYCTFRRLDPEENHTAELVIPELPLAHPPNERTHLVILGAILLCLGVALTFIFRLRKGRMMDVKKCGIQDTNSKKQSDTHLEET
Chain of Programmed cell death protein 1/Programmed cell death 1 ligand 1 (Q15116 whole entry): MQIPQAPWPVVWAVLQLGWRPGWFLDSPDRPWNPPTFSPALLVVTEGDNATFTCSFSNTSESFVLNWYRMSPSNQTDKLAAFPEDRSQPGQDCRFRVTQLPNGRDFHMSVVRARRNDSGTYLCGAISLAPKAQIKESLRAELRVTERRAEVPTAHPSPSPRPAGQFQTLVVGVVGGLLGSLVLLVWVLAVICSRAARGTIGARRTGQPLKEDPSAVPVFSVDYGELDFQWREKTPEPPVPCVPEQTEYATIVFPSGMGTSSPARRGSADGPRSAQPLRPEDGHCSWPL
Chain of Programmed cell death protein 1/Programmed cell death 1 ligand 1 (Q9NZQ7 whole entry): as the sequence (Q9NZQ7 whole entry) above

| Compound | IC50 (Jurkat) [nM] | IC50 [1] [nM] | also measured |
| --- | --- | --- | --- |
| COc1ccc(CNCc2cn([C@@H]3OC[C@@H](O)[C@H](O)[C@H]3O)nn2)cc1OCc1cccc(-c2ccccc2)c1C | 47500 | 1780 |  |
| CC(C)(C)NCC(O)COc1cccc2c1CC(O)C(O)C2 (stereo unspecified) [NADOLOL] |  |  | logD ([2]; octanol/water, pH 7.4, 1 h): -1.2 |
| COc1ccc(CNCc2cn([C@@H]3O[C@H](CO)[C@@H](O)[C@H](O)[C@H]3NC(C)=O)nn2)cc1OCc1cccc(-c2ccccc2)c1C | > 100000 | 1090 |  |
| COc1cc(OCc2cccc(-c3ccccc3)c2C)cc(OC)c1CNCc1cnnn1[C@H]1OC[C@@H](O)[C@H](O)[C@@H]1O | 24900 | 169 |  |
| COc1ccc(CNCc2cn([C@@H]3OC[C@H](O)[C@H](O)[C@H]3O)nn2)cc1OCc1cccc(-c2ccccc2)c1C | 49200 | 1240 |  |
| Cc1c(COc2ccc(Cl)c(CNCCO)c2)cccc1-c1ccccc1 | 12400 |  | inhibition [3]: 36.7% |
| COc1nc(OCc2cccc(-c3ccccc3)c2C)ccc1CNCCO[C@H]1O[C@H](CO)[C@@H](O)[C@H](O)[C@@H]1O |  |  | Activity [4]: Active; inhibition [5]: Active; Activity (RKO [6]): Non-Toxic |
| COc1nc(OCc2cccc(-c3ccccc3)c2C)ccc1CNCCO | 2800 |  | logD at 1 h [2]: 3.23; viability at 48 h, 10 µM [7]: 0%; inhibition [3]: 94.5% |
| COc1ccc(CNCc2cn([C@@H]3O[C@H](CO)[C@@H](O)[C@H](O)[C@H]3O)nn2)cc1OCc1cccc(-c2ccccc2)c1C | > 100000 | 1760 |  |
| COc1nc(OCc2cccc(-c3ccccc3)c2C)ccc1CNCc1cn([C@@H]2OC[C@@H](O)[C@H](O)[C@H]2O)nn1 | 25500 | 110 |  |
| COc1cc(OCc2cccc(-c3ccccc3)c2C)cc(OC)c1CNCc1cn([C@@H]2OC[C@H](O)[C@@H](O)[C@H]2O)nn1 | 19800 | 321 |  |
| COc1nc(OCc2cccc(-c3ccccc3)c2C)ccc1CNCCNC(C)=O | 2600 |  | logD at 1 h [2]: 3.33; Activity (MC-38): Toxic; Activity [8]: Toxic; Activity (RKO [9]): Toxic |
| Cc1c(COc2ccc(CNCCO)cc2F)cccc1-c1ccccc1 | 5400 |  | inhibition [3]: 57.1% |
| COc1cc(OCc2cccc(-c3ccccc3)c2C)cc(OC)c1CNCc1cn([C@@H]2O[C@H](CO)[C@@H](O)[C@H](OC)[C@H]2O)nn1 | 44000 | 355 |  |
| COc1cc(OCc2cccc(-c3ccccc3)c2C)cc(OC)c1CNCc1cn([C@H]2O[C@H](CO)[C@@H](O)[C@H](O)[C@@H]2O)nn1 | 50500 | 114 |  |
| COc1cc(OCc2cccc(-c3ccccc3)c2C)cc(OC)c1CN[C@H](C)CO | 2800 |  | logD at 1 h [2]: 3.25; Activity (MC-38): Toxic; Activity (RKO [9]): Toxic |
| COc1nc(OCc2cccc(-c3ccccc3)c2C)ccc1CNCc1cn([C@@H]2O[C@H](CO)[C@H](O)[C@H](O)[C@H]2O)nn1 | > 100000 | 174 |  |
| COc1nc(OCc2cccc(-c3ccccc3)c2C)ccc1CNCc1cn([C@@H]2O[C@H](CO)[C@@H](O)[C@H](O)[C@H]2NC(C)=O)nn1 | > 100000 | 23.7 |  |
| COc1nc(OCc2cccc(-c3ccccc3)c2C)ccc1CNCc1cn([C@@H]2OC[C@@H](O)[C@@H](O)[C@H]2O)nn1 | 16900 | 98.9 |  |
| COc1ccc(CNCCO)cc1OCc1cccc(-c2ccccc2)c1C | 17900 |  | inhibition [3]: 26.9% |
| COc1ccc(CNCc2cn([C@@H]3OC[C@@H](O)[C@@H](O)[C@H]3O)nn2)cc1OCc1cccc(-c2ccccc2)c1C | 31300 | 2260 |  |
| COc1nc(OCc2cccc(-c3ccccc3)c2C)ccc1CNCc1cn([C@@H]2O[C@@H]3CO[C@@H](c4ccccc4)O[C@H]3[C@H](O)[C@H]2O)nn1 | 8800 | 461 |  |
| COc1cc(OCc2cccc(-c3ccccc3)c2C)cc(OC)c1CNCc1cn([C@H]2O[C@@H](C)[C@@H](O)[C@@H](O)[C@@H]2O)nn1 | 30800 | 161 |  |
| COc1cc(OCc2cccc(-c3ccccc3)c2C)cc(OC)c1CNCc1cn([C@@H]2O[C@H](CO)[C@@H](O)[C@H](O)[C@H]2NC(C)=O)nn1 | > 100000 | 30 |  |

| Compound | IC50 (Jurkat) [nM] | IC50 [1] [nM] | also measured |
| --- | --- | --- | --- |
| COc1cc(OCc2cccc(-c3ccccc3)c2C)cc(OC)c1CNCCO[C@@H]1O[C@H](CO)[C@@H](O)[C@H](O)[C@H]1O |  |  | Activity [10]: inactive |
| COc1nc(OCc2cccc(-c3ccccc3)c2C)ccc1CNCc1cn([C@H]2O[C@@H](C)[C@@H](O)[C@@H](O)[C@@H]2O)nn1 | 24500 | 178 |  |
| COc1cc(OCc2cccc(-c3ccccc3)c2C)cc(OC)c1CNCc1cn([C@@H]2O[C@H](CO)[C@@H](O)[C@H](O)[C@H]2O)nn1 | > 100000 | 147 |  |
| COc1ccc(CNCc2cn([C@H]3OC[C@@H](O)[C@H](O)[C@@H]3O)nn2)cc1OCc1cccc(-c2ccccc2)c1C | 43500 | 503 |  |
| COc1cc(OCc2cccc(-c3ccccc3)c2C)cc(OC)c1CNCc1cn([C@@H]2O[C@@H]3CO[C@@H](c4ccccc4)O[C@H]3[C@H](O)[C@H]2O)nn1 | 4500 | 1090 |  |
| COc1ccc(CNCc2cn([C@@H]3O[C@H](CO)[C@@H](O)[C@H](OC)[C@H]3O)nn2)cc1OCc1cccc(-c2ccccc2)c1C | 50000 | 384 |  |
| COc1ccc(CNCc2cn([C@H]3O[C@@H](C)[C@@H](O)[C@@H](O)[C@@H]3O)nn2)cc1OCc1cccc(-c2ccccc2)c1C | 53100 | 1920 |  |
| COc1cc(OCc2cccc(-c3ccccc3)c2C)cc(OC)c1CNCc1cn([C@@H]2O[C@H](CO)[C@H](O)[C@H](O)[C@H]2O)nn1 | 27300 | 454 |  |
| CN(C)CCC=C1c2ccccc2CCc2ccccc21 [AMITRIPTYLINE] |  |  | logD at 1 h [2]: 3 |
| COc1ccc(CNCc2cn([C@@H]3O[C@@H]4CO[C@@H](c5ccccc5)O[C@H]4[C@H](O)[C@H]3O)nn2)cc1OCc1cccc(-c2ccccc2)c1C | 6200 | 2960 |  |
| COc1cc(OCc2cccc(-c3ccccc3)c2C)cc(OC)c1CNCc1cn([C@@H]2OC[C@H](O)[C@H](O)[C@H]2O)nn1 | 43400 | 507 |  |
| CN(C)CCCN1c2ccccc2Sc2ccc(Cl)cc21 [CHLORPROMAZINE] |  |  | logD at 1 h [2]: 3.18 |
| COc1cc(OCc2cccc(-c3ccccc3)c2C)cc(OC)c1CNCc1cn([C@@H]2OC[C@@H](O)[C@@H](O)[C@H]2O)nn1 | 14900 | 206 |  |
| COc1nc(OCc2cccc(-c3ccccc3)c2C)ccc1CNCc1cn([C@@H]2O[C@H](CO)[C@@H](O)[C@H](O)[C@H]2O)nn1 | > 100000 | 56.1 |  |
| COc1cc(OCc2cccc(-c3ccccc3)c2C)cc(OC)c1CNCc1cn([C@@H]2OC[C@@H](O)[C@H](O)[C@H]2O)nn1 | 27600 | 353 |  |
| COc1ccc(CNCc2cn([C@@H]3OC[C@H](O)[C@@H](O)[C@H]3O)nn2)cc1OCc1cccc(-c2ccccc2)c1C | 53900 | 1480 |  |
| Cc1cc(OCc2cccc(-c3ccccc3)c2C)cc(C)c1CNCCO | 4100 |  | inhibition [3]: 62.8% |
| COc1cc(OCc2cccc(-c3ccccc3)c2C)cc(OC)c1CNCCO | 5700 |  | logD at 1 h [2]: 2.85; viability at 48 h, 10 µM [7]: 0% |
| COc1ccc(CNCc2cn([C@@H]3O[C@H](CO)[C@H](O)[C@H](O)[C@H]3O)nn2)cc1OCc1cccc(-c2ccccc2)c1C | > 100000 | 612 |  |
| Cc1c(COc2cc(CNCCO)ccc2Cl)cccc1-c1ccccc1 | 7800 |  | inhibition [3]: 51.4% |
| COc1ccc(CNCc2cn([C@H]3O[C@H](CO)[C@@H](O)[C@H](O)[C@@H]3O)nn2)cc1OCc1cccc(-c2ccccc2)c1C | 73900 | 1150 |  |
| COc1nc(OCc2cccc(-c3ccccc3)c2C)ccc1CNCc1cn([C@@H]2O[C@H](CO)[C@@H](O)[C@H](OC)[C@H]2O)nn1 | 34300 | 305 |  |
| COc1nc(OCc2cccc(-c3ccccc3)c2C)ccc1CNCc1cnnn1[C@H]1OC[C@@H](O)[C@H](O)[C@@H]1O | 26700 | 118 |  |
| COc1nc(OCc2cccc(-c3ccccc3)c2C)ccc1CNCc1cn([C@H]2O[C@H](CO)[C@@H](O)[C@H](O)[C@@H]2O)nn1 | 46000 | 164 |  |
